# Test system: Escherichia coli strain ATCC25922
# Test: standard microdilution assay to determine minimum inhibitory concentrations (MICs)
# Type: cell-based
# Settings: Escherichia coli strain ATCC25922, microdilution
# In short: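 Broth microdilution MIC against E. coli ATCC25922, following CLSI protocols, typically in a 100 microliter final volume. Results reported as +/− relative to a 16 micrograms/ml cutoff.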
row,SMILES,E. coli ATCC25922 MIC
1,N=C(N)NCCCNC(=O)c1ccc(C2N=c3cc(-c4ccc(S(=O)(=O)N(CCCN5CCCCC5)C5CCNCC5)cc4)[nH]c3=NC2=O)cc1 (stereo not shown) [Compound 1017],+ (a “+” indicates that the compound has an MIC value of 16 micrograms/ml or less)
2,NCCCNCc1ccc(-c2cn3cc(-c4ccc(C(=O)N5CCN(CCF)CC5)cc4)[nH]c3nc2=O)cc1 [Compound 825],− (a “−” indicates that the compound has an MIC value greater than 16 micrograms/ml)
3,NCCCCOc1ccc(-c2cn3cc(-c4ccc(S(=O)(=O)N5CCNCC5)cc4)[nH]c3nc2=O)cc1 [Compound 809],− (a “−” indicates that the compound has an MIC value greater than 16 micrograms/ml)
4,N=C(N)NCCCNCc1ccc(-n2cc3cc(-c4cc(OC(F)(F)F)cc([S+]([O-])CCCN)c4)[nH]c3nc2=O)cc1 (stereo not shown) [Compound 2076a],+ (a “+” indicates that the compound has an MIC value of 16 micrograms/ml or less)
5,N=C(N)NCCCNCc1ccc(-n2cc3cc(-c4ccc(S(=O)(=O)N(CC5(CO)CC5)C5CCNCC5)cc4)[nH]c3nc2=O)cc1 [Compound 958],+ (a “+” indicates that the compound has an MIC value of 16 micrograms/ml or less)
6,COCCOCCN(C1CCNCC1)S(=O)(=O)c1cccc(-c2cc3cn(-c4ccc(CNCCCNC(=N)N)cc4)c(=O)nc3[nH]2)c1 [Compound 1161],+ (a “+” indicates that the compound has an MIC value of 16 micrograms/ml or less)
7,COc1ccc(NCCCS(=O)(=O)c2ccc(-c3cc4cn(-c5ccc(CNCCCN=C(N)N)cc5)c(=O)nc4[nH]3)cc2)cc1 [Compound 1250],− (a “−” indicates that the compound has an MIC value greater than 16 micrograms/ml)
8,N=C(N)NCCCN1CC=C(n2cc3cc(-c4ccc(S(=O)(=O)N(CCCN5CCCCC5)C5CCNCC5)cc4)[nH]c3nc2=O)CC1 [Compound 960],+ (a “+” indicates that the compound has an MIC value of 16 micrograms/ml or less)
9,N=C(N)NCCCNCc1ccc(-n2cc3cc(-c4cccc(OC[C@@H]5CCNC5)c4)[nH]c3nc2=O)cc1 [Compound 1423],+ (a “+” indicates that the compound has an MIC value of 16 micrograms/ml or less)
10,CN1CCN(CCCN(C2CCNCC2)S(=O)(=O)c2ccc(-c3cc4cn(-c5ccc(CN6CC[C@@H](NC(=N)N)C6)cc5)c(=O)nc4[nH]3)cc2)CC1 [Compound 1207],− (a “−” indicates that the compound has an MIC value greater than 16 micrograms/ml)
11,NCc1ccc(-n2cc3cc(-c4ccc(S(=O)(=O)N(CCCN5CCCC(O)C5)C5CCNCC5)cc4)[nH]c3nc2=O)cc1 (stereo not shown) [Compound 1092],− (a “−” indicates that the compound has an MIC value greater than 16 micrograms/ml)
12,CNCc1ccc(-n2cc3cc(-c4ccc(S(=O)(=O)N(CCCc5ccc(F)cc5)C5CCNCC5)cc4)[nH]c3nc2=O)cc1 [Compound 1062],− (a “−” indicates that the compound has an MIC value greater than 16 micrograms/ml)
13,N=C(N)NCCCNC(=O)c1ccc(-n2cc3cc(-c4ccc(S(=O)(=O)NC5CNC5)cc4)[nH]c3nc2=O)cc1 [Compound 1268],+ (a “+” indicates that the compound has an MIC value of 16 micrograms/ml or less)
14,N=C(N)NCCCNCc1ccc(-n2cc3cc(-c4cc(CCCCN)ccc4F)[nH]c3nc2=O)cc1 [Compound 2091a],+ (a “+” indicates that the compound has an MIC value of 16 micrograms/ml or less)
15,NCCCNCc1ccc(-n2cc3cc(-c4cc(C(=O)N5CCC(C(N)=O)CC5)cc(N5CCNCC5)c4)[nH]c3nc2=O)cc1 [Compound 910],− (a “−” indicates that the compound has an MIC value greater than 16 micrograms/ml)
16,N=C(N)NCCCNCc1ccc(-n2cc3cc(-c4ccc(S(=O)(=O)N(Cc5ccccc5SC(F)(F)F)C5CCOCC5)cc4)[nH]c3nc2=O)cc1 [Compound 876],− (a “−” indicates that the compound has an MIC value greater than 16 micrograms/ml)
17,NC(N)=NCCCNCc1ccc(-n2cc3cc(-c4cccc(S(=O)(=O)N(CCc5ccc(O)cc5)C5CCNCC5)c4)[nH]c3nc2=O)cc1 [Compound 1214],+ (a “+” indicates that the compound has an MIC value of 16 micrograms/ml or less)
18,N=C(N)NCCCNCc1ccc(-n2cc3cc(C4CCN(CC(O)CN)C4)[nH]c3nc2=O)cc1 (stereo not shown) [Compound 1456],+ (a “+” indicates that the compound has an MIC value of 16 micrograms/ml or less)
19,N=C(N)NCCCNCc1ccc(-c2cn3cc(-c4ccc(C(=O)N5CCN(CCF)CC5)cc4)[nH]c3nc2=O)cc1 [Compound 826],− (a “−” indicates that the compound has an MIC value greater than 16 micrograms/ml)
20,N=C(N)NCCCNCc1ccc(-n2cc3cc(-c4cccc(OCC(F)CN)c4)[nH]c3nc2=O)cc1 (stereo not shown) [Compound 1390],+ (a “+” indicates that the compound has an MIC value of 16 micrograms/ml or less)
21,N=C(N)NCCCNCc1ccc(-n2cc3cc(-c4cc(Cl)cc(CCCCN)c4)[nH]c3nc2=O)cc1 [Compound 2068a],+ (a “+” indicates that the compound has an MIC value of 16 micrograms/ml or less)

# Same assay, conditions: Escherichia coli, ATCC25922, Escherichia coli strain ATCC25922, microdilution; read-out: E. coli ATCC25922 MIC
row,SMILES,MIC
1,COc1cccc(CCCN(C2CCNCC2)S(=O)(=O)c2ccc(-c3cc4cn(-c5ccc(CN)cc5)c(=O)nc4[nH]3)cc2)c1 [Compound 1036],> 16 µg/mL
2,NOCCNC(=O)c1ccc(-n2cc3cc(-c4ccc(S(=O)(=O)NC5CCNCC5)cc4)[nH]c3nc2=O)cc1 [Compound 1136],> 16 µg/mL
3,N=C(N)NCCCNCc1ccc(-n2cc3cc(-c4cccc(OCCCN)c4)[nH]c3nc2=O)cc1F [Compound 1263],< 16 µg/mL
4,NCCc1cn(CCCCO)c2cc(-n3cc4cc(CCS(=O)(=O)C5CCNCC5)[nH]c4nc3=O)ccc12 [Compound 1239],> 16 µg/mL
5,NCCCNCc1ccc(-c2cn3cc(-c4ccc(C(=O)NCCO)cc4)[nH]c3nc2=O)cc1 [Compound 827],> 16 µg/mL
6,NCCCOCc1ccc(-c2cn3cc(-c4ccc(C(=O)NC5CCNCC5)cc4)[nH]c3nc2=O)cc1 [Compound 927],> 16 µg/mL
7,NCc1ccc(-n2cc3cc(-c4ccc(S(=O)(=O)N(CCCN5CCOCC5)C5CCNCC5)cc4)[nH]c3nc2=O)cc1 [Compound 1038],> 16 µg/mL
8,N=C(N)NCCCNCc1ccc(-n2cc3cc(CN4CCS(=O)(=O)CC4)[nH]c3nc2=O)cc1 [Compound 628],> 16 µg/mL
9,N=C(N)NCCCNC(=O)c1ccc(-n2cc3cc(C4CCCN(C(=N)N)C4)[nH]c3nc2=O)cc1 (stereo not shown) [Compound 1256],< 16 µg/mL
10,N=C(N)NCCCNCc1ccc(-n2cc3cc(-c4cccc(NCC(=O)N5CCNCC5)c4)[nH]c3nc2=O)cc1 [Compound 645],< 16 µg/mL
11,CNCc1ccc(-n2cc3cc(-c4ccc(S(=O)(=O)N(CCCn5cccn5)C5CCNCC5)cc4)[nH]c3nc2=O)cc1 [Compound 1020],> 16 µg/mL
12,NCc1ccc(-n2cc3cc(-c4cccc(S(=O)(=O)N(CCc5ccc(F)cc5)C5CCNCC5)c4)[nH]c3nc2=O)cc1 [Compound 1160],> 16 µg/mL
13,N=C(N)NCCCNC(=O)c1ccc(-n2cc3cc(-c4cccc(OCCCN)c4)[nH]c3nc2=O)cc1 [Compound 1255],< 16 µg/mL
14,NCc1ccc(-n2cc3cc(-c4ccc(S(=O)(=O)N(CCCc5ccc(F)cc5)C5CCNCC5)cc4)[nH]c3nc2=O)cc1 [Compound 1053],> 16 µg/mL
15,CS(=O)(=O)N1CCN(C(=O)c2ccc(-c3cn4cc(-c5ccc(CNCCCNC(=N)N)cc5)c(=O)nc4[nH]3)cc2)CC1 [Compound 716],> 16 µg/mL
16,COCCOCCOc1cccc(-c2cc3cn(-c4ccc(CN)cc4)c(=O)nc3[nH]2)c1 [Compound 1094],> 16 µg/mL

# Source: patent US9193731B2, “Antimicrobial compounds and methods of making and using the same” (Melinta Therapeutics, Inc., priority 2009, dated 2015)
